# Data reported in patent publication US20100029654A1, “CARDIOVASCULAR COMPOSITIONS AND USE OF THE SAME FOR THE TREATMENT OF ALZHEIMER'S DISEASE” (MOUNT SINAI SCHOOL OF MEDICINE, priority 2006, published 2010).
# Structures can show the parent of a compound that is named as a salt. Where two headings read alike, the source gives them in different places.
# Columns and labels:
# Aβ1-40 = Aβ1-40 content in conditioned medium of primary cortico-hippocampal neuron cultures from Tg2576 mice (ELISA; primary and secondary dose-response screening); type: cell-based, mouse; conditions: for activity at 100 µM: 24 h, read-out: Ab1-40 (% of ctl); for activity at 100 µM / Ab1-40 (% of ctl): drug 100 μM; for reduced Aβ1-40: <85% of ctl
# Outline: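 Primary cortico-hippocampal neurons from embryonic Tg2576 mice were plated at 1.0×10^5 cells per well on poly-D-lysine-coated 96-well plates in Neurobasal with 2% B27, 0.5 mM L-glutamine and 1% penicillin-streptomycin. Cultures received drug in 1% DMSO, and Aβ1-40 in the conditioned medium was measured by BioSource ELISA 24 hours after treatment, relative to vehicle controls.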
# Aβ1-42 [1] = test: Aβ1-42 content in conditioned medium of primary cortico-hippocampal neuron cultures from Tg2576 mice (ELISA; primary and secondary dose-response screening); type: cell-based, mouse; conditions: for activity at 100 µM: Mus musculus, Neuron, 24 h, read-out: Ab1-42 (% of ctl); for activity at 100 µM / Ab1-42 (% of ctl): drug 100 μM; for reducing Aβ1-42: <85% of ctl
# Outline: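 This screen tested cardiovascular drugs for Aβ-lowering in Tg2576 embryonic cortico-hippocampal neuron cultures plated at 1.0×10^5 cells per well in poly-D-lysine-coated 96-well plates with Neurobasal/B27 medium. Drugs at 100 μM were added directly to the medium in duplicate, with 1% DMSO alone as the control. Conditioned medium was then collected, and its Aβ1-42 level was quantified with BioSource ELISA kits.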
# Aβ1-42 [2] = test: as above; type: cell-based, mouse; conditions: for EC50 / activity at 100 µM: Mus musculus; for EC50: Neuron; for activity at 100 µM: primary screening, drug 100 μM, Tg2576 neuron cultures, table sorted by Aβ1-42, read-out: Ab1-42 (% of ctl)
# [3] = tested on: primary cortico-hippocampal neuron cultures; test: MTT in primary screening
# [4] = tested on: primary cortico-hippocampal neuron cultures; test: lactate dehydrogenase (LDH) activity assay in parallel neuron cultures; conditions: for LDH at E-5M % of change: drug at E-5M; for LDH (at 5F-5 M): Table IV
# Experimental: For in vitro treatments drugs available from “The Spectrum Collection” in stocks of 10 mM in DMSO were applied directly to cultures to the desired concentrations (final 1% DMSO); control primary neuron cultures from Tg2576 embryos were treated with vehicle resulting in a final 1% DMSO.
# Cell viability was assessed using a commercial available LDH assay kit according to the manufacture's instruction (Promega).
# [5] = Mus musculus, Neuron, Primary Screening, table sorted by Aβ1-40
# [6] = Mus musculus, Neuron, primary screening, Tg2576 neuron cultures, table sorted by Aβ1-42
# [7] = Mus musculus, Neuron, secondary dose-response screening 0.01-100 μM, 24 hours, read-out: EC50 (molar) Aβ1-40
# [8] = Primary Screening, table sorted by Aβ1-40
# [9] = primary screening, Tg2576 neuron cultures, table sorted by Aβ1-42
# [10] = 24 h, conditioned medium of primary cortico-hippocampal neuron cultures from Tg2576 embryos, 24 hours after treatment, relative to vehicle (1% DMSO) control, read-out: EC50 (molar) Aβ1-42
# [11] = 24 h, secondary dose-response screening 0.01-100 μM, 24 hours, read-out: EC50 (molar) Aβ1-42
# [12] = primary screening, table sorted by Aβ1-42
# [13] = Mus musculus, Neuron, Table IV, dose-response 0.01-100 μM, read-out: EC50 (M): Ab-lowering activity Abeta1-40
# [14] = Table IV, dose-response 0.01-100 μM, read-out: EC50 (M): Ab-lowering activity
# [15] = Mus musculus, primary screening, Tg2576 neuron cultures, table sorted by Aβ1-42
# [16] = secondary dose-response screening 0.01-100 μM, 24 hours
compound,measurement,setting,value
CC(CCc1ccccc1)NCC(O)c1ccc(O)c(C(N)=O)c1 (stereo not shown) [Labetalol Hydrochloride],activity at 100 µM,Aβ1-40; [5],84.9%
same,activity at 100 µM,Aβ1-40; [6],84.9%
same,EC50,Aβ1-40; [7],4.06e-09 M
same,reduced Aβ1-40,Aβ1-40; primary screening,reduced Aβ1-40
same,activity at 100 µM,Aβ1-42 [1]; [8],106%
same,activity at 100 µM,Aβ1-42 [1]; [9],106%
same,EC50,Aβ1-42 [2]; [10],7.19e-07 M
same,EC50,Aβ1-42 [2]; [11],7.19e-07 M
same,MTT (% of ctl),[3]; [8],93.0 % of ctl
same,MTT (% of ctl),[3]; [12],93.0 % of ctl
same,LDH (% of ctl),[4]; [8],164.0 % of ctl
same,LDH at E-5M % of change,[4],−5.0%
same,LDH (% of ctl),[4]; [12],164.0 % of ctl
N=C(N)NC(=O)c1nc(Cl)c(N)nc1N [Amiloride Hydrochloride],activity at 100 µM,Aβ1-40; [5],77.5%
same,activity at 100 µM,Aβ1-40; [6],77.5%
same,EC50,Aβ1-40; [13],8.67e-05 M
same,EC50,Aβ1-40; [7],8.67e-05 M
same,reduced Aβ1-40,Aβ1-40; primary screening,reduced Aβ1-40
same,activity at 100 µM,Aβ1-42 [1]; [8],47.1%
same,activity at 100 µM,Aβ1-42 [1]; [9],47.1%
same,reducing Aβ1-42,Aβ1-42 [1]; primary screening,useful in reducing Aβ1-42
same,EC50,Aβ1-42 [2]; [11],0.039 M
same,EC50,Aβ1-42 [2]; [14],3.01e-05 M
same,MTT (% of ctl),[3]; [8],80.8 % of ctl
same,MTT (% of ctl),[3]; [12],80.8 % of ctl
same,LDH (% of ctl),[4]; [8],104.7 % of ctl
same,LDH (at 5F-5 M),[4],no change
same,LDH at E-5M % of change,[4],6.4%
same,LDH (% of ctl),[4]; [12],104.7 % of ctl
Cc1cc(C(C)(C)C)cc(C)c1CC1=NCCN1 [Xylometazoline Hydrochloride],activity at 100 µM,Aβ1-40; [15],66.6%
same,Ab1-40 (% of ctl),Aβ1-40; [8],66.6 % of ctl
same,reduced Aβ1-40,Aβ1-40; primary screening,reduced Aβ1-40
same,Ab1-42 (% of ctl),Aβ1-42 [1]; [8],71.8 % of ctl
same,reducing Aβ1-42,Aβ1-42 [1]; primary screening,useful in reducing Aβ1-42
same,activity at 100 µM,Aβ1-42 [2]; 24 h,71.8%
same,MTT (% of ctl),[3]; [8],88.2 % of ctl
same,MTT (% of ctl),[3]; [12],88.2 % of ctl
same,LDH (% of ctl),[4]; [8],110.8 % of ctl
same,LDH (% of ctl),[4]; [12],110.8 % of ctl
NNc1nncc2ccccc12 [Hydralazine Hydrochloride],activity at 100 µM,Aβ1-40; [5],66.1%
same,activity at 100 µM,Aβ1-40; [6],66.1%
same,EC50,Aβ1-40; [13],9.29e-06 M
same,EC50,Aβ1-40; [7],9.29e-06 M
same,reduced Aβ1-40,Aβ1-40; primary screening,reduced Aβ1-40
same,activity at 100 µM,Aβ1-42 [1]; [8],63.2%
same,activity at 100 µM,Aβ1-42 [1]; [9],63.2%
same,reducing Aβ1-42,Aβ1-42 [1]; primary screening,useful in reducing Aβ1-42
same,EC50,Aβ1-42 [2]; [11],1.04e-05 M
same,EC50,Aβ1-42 [2]; [14],1.04e-05 M
same,MTT (% of ctl),[3]; [8],95.7 % of ctl
same,MTT (% of ctl),[3]; [12],95.7 % of ctl
same,LDH (% of ctl),[4]; [8],101.1 % of ctl
same,LDH (at 5F-5 M),[4],no change
same,LDH at E-5M % of change,[4],−1.2%
same,LDH (% of ctl),[4]; [12],101.1 % of ctl
CCOC(=O)C1=C(C)NC(C)=C(C(=O)OC)C1c1cccc([N+](=O)[O-])c1 (stereo not shown) [Nitrendipine],activity at 100 µM,Aβ1-40; [5],33%
same,activity at 100 µM,Aβ1-40; [6],33%
same,EC50,Aβ1-40; [7],0.000822 M
same,activity at 100 µM,Aβ1-42 [1]; [8],64%
same,activity at 100 µM,Aβ1-42 [1]; [9],64%
same,EC50,Aβ1-42 [2]; [10],1.6e-06 M
same,EC50,Aβ1-42 [2]; [11],1.6e-06 M
same,MTT (% of ctl),[3]; [8],100.8 % of ctl
same,MTT (% of ctl),[3]; [12],100.8 % of ctl
same,LDH (% of ctl),[4]; [8],94.3 % of ctl
same,LDH at E-5M % of change,[4],5.0%
same,LDH (% of ctl),[4]; [12],94.3 % of ctl
COC(=O)[C@@H]1[C@H]2C[C@H]3c4[nH]c5ccccc5c4CCN3C[C@@H]2CC[C@@H]1O [Yohimbine Hydrochloride],activity at 100 µM,Aβ1-40; [5],66.2%
same,activity at 100 µM,Aβ1-40; [6],66.2%
same,reduced Aβ1-40,Aβ1-40; primary screening,reduced Aβ1-40
same,EC50 (molar) Aβ1-40,Aβ1-40; [16],no fit
same,activity at 100 µM,Aβ1-42 [1]; [8],68.9%
same,activity at 100 µM,Aβ1-42 [1]; [9],68.9%
same,reducing Aβ1-42,Aβ1-42 [1]; primary screening,useful in reducing Aβ1-42
same,EC50,Aβ1-42 [2]; [11],7.08e-12 M
same,MTT (% of ctl),[3]; [8],82.7 % of ctl
same,MTT (% of ctl),[3]; [12],82.7 % of ctl
same,LDH (% of ctl),[4]; [8],107.8 % of ctl
same,LDH at E-5M % of change,[4],6.0%
same,LDH (% of ctl),[4]; [12],107.8 % of ctl
C[N+](C)(C)CCCCCC[N+](C)(C)C [Hexamethonium Bromide],activity at 100 µM,Aβ1-40; [15],84.8%
same,Ab1-40 (% of ctl),Aβ1-40; [8],84.8 % of ctl
same,reduced Aβ1-40,Aβ1-40; primary screening,reduced Aβ1-40
same,Ab1-42 (% of ctl),Aβ1-42 [1]; [8],72.6 % of ctl
same,reducing Aβ1-42,Aβ1-42 [1]; primary screening,useful in reducing Aβ1-42
same,activity at 100 µM,Aβ1-42 [2]; 24 h,72.6%
same,MTT (% of ctl),[3]; [8],92.1 % of ctl
same,MTT (% of ctl),[3]; [12],92.1 % of ctl
same,LDH (% of ctl),[4]; [8],99.7 % of ctl
same,LDH (% of ctl),[4]; [12],99.7 % of ctl
C[C@]12CC[C@H]3[C@@H](CC[C@]4(O)C[C@@H](O)CC[C@]34C=O)[C@@]1(O)CC[C@@H]2C1=CC(=O)OC1 [Strophanthidin],activity at 100 µM,Aβ1-40; [15],108%
same,Ab1-40 (% of ctl),Aβ1-40; [8],107.5 % of ctl
same,Ab1-42 (% of ctl),Aβ1-42 [1]; [8],88.6 % of ctl
same,activity at 100 µM,Aβ1-42 [2]; 24 h,88.6%
same,MTT (% of ctl),[3]; [8],99.2 % of ctl
same,MTT (% of ctl),[3]; [12],99.2 % of ctl
same,LDH (% of ctl),[4]; [8],119.4 % of ctl
same,LDH (% of ctl),[4]; [12],119.4 % of ctl
CC[C@@H](C)C(=O)O[C@H]1[C@H](O)[C@H]2[C@@H](CN3C[C@@H](C)CC[C@H]3[C@@]2(C)O)[C@@H]2C[C@]34O[C@]5(O)[C@@H](OC(=O)[C@](C)(O)[C@@H](C)O)CC[C@@]3(C)[C@@H]5[C@@H](OC(C)=O)[C@@H](OC(C)=O)[C@H]4[C@@]21O (stereo in doubt) [Protoveratrine B],Ab1-40 (% of ctl),Aβ1-40; [8],61.8 % of ctl
same,reduced Aβ1-40,Aβ1-40; primary screening,reduced Aβ1-40
same,Ab1-40 (% of ctl),Aβ1-40; [9],61.8 % of ctl
same,EC50,"Aβ1-40; secondary dose-response screening 0.01-100 μM, 24 hours, read-out: EC50 (molar) Aβ1-40",6.73e-06 M
same,Ab1-42 (% of ctl),Aβ1-42 [1]; [8],93.3 % of ctl
same,Ab1-42 (% of ctl),Aβ1-42 [1]; [9],93.3 % of ctl
same,EC50 (molar) Aβ1-42,Aβ1-42 [2]; [16],no fit
same,MTT (% of ctl),[3]; [8],58.5 % of ctl
same,MTT (% of ctl),[3]; [12],58.5 % of ctl
same,LDH (% of ctl),[4]; [8],729.8 % of ctl
same,LDH at E-5M % of change,[4],−2.5%
same,LDH (% of ctl),[4]; [12],729.8 % of ctl
Cc1ccc(N(CC2=NCCN2)c2cccc(O)c2)cc1 [Phentolamine Hydrochloride],activity at 100 µM,Aβ1-40; [5],83.4%
same,activity at 100 µM,Aβ1-40; [6],83.4%
same,EC50,Aβ1-40; [7],1.21e-05 M
same,reduced Aβ1-40,Aβ1-40; primary screening,reduced Aβ1-40
same,activity at 100 µM,Aβ1-42 [1]; [8],72.9%
same,activity at 100 µM,Aβ1-42 [1]; [9],72.9%
same,reducing Aβ1-42,Aβ1-42 [1]; primary screening,useful in reducing Aβ1-42
same,EC50,Aβ1-42 [2]; [11],8.65e-08 M
same,MTT (% of ctl),[3]; [8],110.3 % of ctl
same,MTT (% of ctl),[3]; [12],110.3 % of ctl
same,LDH (% of ctl),[4]; [8],90.7 % of ctl
same,LDH at E-5M % of change,[4],−3.4%
same,LDH (% of ctl),[4]; [12],90.7 % of ctl
NCCc1cc(O)c(O)cc1O [Oxidopamine Hydrochloride],activity at 100 µM,Aβ1-40; [15],43.8%
same,Ab1-40 (% of ctl),Aβ1-40; [8],43.8 % of ctl
same,reduced Aβ1-40,Aβ1-40; primary screening,reduced Aβ1-40
same,Ab1-42 (% of ctl),Aβ1-42 [1]; [8],36.4 % of ctl
same,reducing Aβ1-42,Aβ1-42 [1]; primary screening,useful in reducing Aβ1-42
same,activity at 100 µM,Aβ1-42 [2]; 24 h,36.4%
same,MTT (% of ctl),[3]; [8],121.5 % of ctl
same,MTT (% of ctl),[3]; [12],121.5 % of ctl
same,LDH (% of ctl),[4]; [8],103.6 % of ctl
same,LDH (% of ctl),[4]; [12],103.6 % of ctl
